Source: patent publication US8178678B2, “Bis-quaternary ammonium salts and methods for modulating neuronal nicotinic acetylcholine receptors” (University of Kentucky Research Foundation, priority 2006, dated 2012)

Tests used:
[1] = target: T1, Rat Striatal Nicotinic Receptors ([^3H]NIC binding sites; α4β2) (Rattus norvegicus, UniProt P09483+P12390); experiment: Inhibition of [^3H]NIC binding; details: 1 h; 100 nM analog; 3 nM [^3H]NIC; nonspecific 10 μM cytisine; rat brain membranes
T1 construct: Whole brain, excluding cortex and cerebellum, was homogenized in 20 vol of ice-cold buffer; from tissue; host or cells: rat brain membranes (whole brain excluding cortex and cerebellum)
Experimental: (§1) Homogenate was centrifuged (25,000 g, 15 min, 4° C). Pellets were resuspended in 20 vol buffer and incubated at 37° C., for 10 min, cooled to 4° C. and centrifuged (25,000 g, 15 min, 4° C.). Pellets were resuspended and centrifuged using the same conditions. […] Upon use, final pellets were resuspended in 20 vol assay buffer. Samples (250 μl) contained 100-140 μg of membrane protein, 3 nM [^3H]-S-nicotine or 3 nM [^3H]-methyllycaconitine (MLA), and bis-quaternary ammonium analog (100 nM) in assay buffer containing 50 mM Tris. Control was in the absence of analog. In [^3H]-S-nicotine and [^3H]-methyllycaconitine binding assays, nonspecific binding was determined in the presence of 10 μM cytisine and 10 μM S-nicotine, respectively. Incubations proceeded for 60 min at room temperature using 96-well plates and were terminated by harvesting on Unifilter-96 GF/B filter plates presoaked in 0.5% polyethylenimine, using a Packard FilterMate harvester. After washing 5 times with 350 μl ice-cold assay buffer, filter plates were dried (60 min, 4° C.), bottom-sealed, and filled with Packard's MicroScint 20 cocktail (40 μl/well). After 60 min, filter plates were top-sealed, and radioactivity determined using a Packard TopCount. Protein concentrations were determined using the Bradford dye-binding procedure bovine serum albumin as the standard.
Specific binding in the [^3H]NIC binding assay is calculated as the difference between the total binding of 3 nM [^3H]NIC and nonspecific binding in the presence of 10 μM cold cytisine. […] Analog-induced inhibition of S-nicotine-evoked [^3H]DA release is calculated as a percent of that in the absence of the bis-quaternary ammonium analog.

[2] = target: T2, Rat Striatal Nicotinic Receptors ([^3H]MLA binding sites; α7) (Rattus norvegicus, UniProt Q05941); experiment: Inhibition of [^3H]MLA (methyllycaconitine) binding; details: 100 nM analog; [^3H]MLA; nonspecific S-nicotine; rat brain membranes; read-out: [^3H]MLA binding, % inhibition
T2 construct: Whole brain, excluding cortex and cerebellum, was homogenized in 20 vol of ice-cold buffer; from tissue; host or cells: rat brain membranes (whole brain excluding cortex and cerebellum)
Experimental: as §1, with “standard. […]” for “standard.”

[3] = test system: nicotinic receptors mediating S-nicotine-evoked [^3H]DA release in rat striatal slices; experiment: Inhibition of S-nicotine-evoked [^3H]dopamine release from superfused rat striatal slices; type: cell-based; details: 1 h; 100 nM analog superfused 60 min before NIC 10 μM; rat striatal slices; read-out: [^3H]DA release, % inhibition of S-nicotine-evoked release
Experimental: Rat striatal slices (500 μm thickness, 6-8 mg wet weight) were incubated for 30 minutes in Krebs buffer (118 mM NaCl, 4.7 mM KCl, 1.2 mM MgCl2, 1.0 mM NaH2PO4, 1.3 mM CaCl2, 11.1 mM glucose, 25 mM NaHCO3, 0.11 mM L-ascorbic acid, and 0.004 mM disodium EDTA; pH 7.4, and saturated with 95% O2/5% CO2) in a metabolic shaker at 34° C. Slices were rinsed with 15 mL of fresh buffer and incubated for an additional 30 minutes in fresh buffer containing 0.1 μM [^3H]dopamine (DA; 6 slices/3 mL). Subsequently, slices were rinsed with 15 mL of fresh buffer and transferred to a glass superfusion chamber. Slices were superfused (1.0 mL/min) for 60 minutes with Krebs buffer containing nomifensine (10 μM) and pargyline (10 μM) and maintained at 34° C., pH 7.4, with continual aeration (95% O2/5% CO2). Two five minute samples (5 mL each) were collected to determine basal outflow of [^3H]DA. The bis-quaternary ammonium analogs were added to the superfusion buffer after the collection of the second sample and remained in the buffer until 12 consecutive five minute samples were collected. Subsequently, S-nicotine (NIC; 10 μM) was added to the buffer and an additional 12 consecutive five minute samples were collected. At the end of the experiment, each slice was solubilized and the [^3H] content of the tissue determined.
Radioactivity in the superfusate and tissue samples was determined by liquid scintillation spectroscopy. Fractional release for tritium collected in each sample was divided by the total tritium present in the tissue at the time of sample collection and was expressed as a percentage of total tritium. Basal [^3H]outflow was calculated from the average of the tritium collected in the two five minute samples just before addition of the quaternary analog. The sum of the increase in collected tritium resulting from either exposure to the test compound or exposure to S-nicotine in the absence and presence of the test compound equaled total [^3H]overflow. [^3H]Overflow was calculated by subtracting the [^3H]outflow during an equivalent period of prestimulation from the values in samples collected during and after drug exposure. Inasmuch as the radiolabelled compounds were not separated and identified, the tritium collected in superfusate is referred to as either [3H]outflow or [^3H]overflow, rather than as [^3H]DA. [^3H]Overflow primarily represents [^3H]DA in the presence of nomifensine and pargyline in the superfusion buffer.
The bis-quaternary ammonium analogs were also evaluated for their ability to inhibit NIC evoked [^3H]DA release. In these experiments, the striatal slices were superfused for 60 minutes with 100 nM concentration of the quaternary analogs prior to NIC (10 μM) exposure. Antagonist activity was evaluated by comparing the NIC-evoked [^3 H]overflow in the absence and presence of the analogs. The relative order of potency of the quaternary analogs for inhibition of NIC-evoked [^3H]DA release from rat striatal slices is illustrated in Table 1.
^aData are % inhibition at 100 nM concentration of the bis-quaternary ammonium analogs for at least 1-3 independent experiments; with the exception of when a Ki value in μM is provided, in which case a full concentration effect was evaluated. Specific binding in the [^3H]NIC binding assay is calculated as the difference between the total binding of 3 nM [^3H]NIC and nonspecific binding in the presence of 10 μM cold cytisine. Specific binding for the [^3H]MLA binding assay is calculated as the difference between the total binding of […] [^3H]MLA to the receptors alone and its nonspecific binding in the presence of […] cold S-nicotine. Analog-induced inhibition of S-nicotine-evoked [^3H]DA release is calculated as a percent of that in the absence of the bis-quaternary ammonium analog.

T2 sequence (Q05941 23-502): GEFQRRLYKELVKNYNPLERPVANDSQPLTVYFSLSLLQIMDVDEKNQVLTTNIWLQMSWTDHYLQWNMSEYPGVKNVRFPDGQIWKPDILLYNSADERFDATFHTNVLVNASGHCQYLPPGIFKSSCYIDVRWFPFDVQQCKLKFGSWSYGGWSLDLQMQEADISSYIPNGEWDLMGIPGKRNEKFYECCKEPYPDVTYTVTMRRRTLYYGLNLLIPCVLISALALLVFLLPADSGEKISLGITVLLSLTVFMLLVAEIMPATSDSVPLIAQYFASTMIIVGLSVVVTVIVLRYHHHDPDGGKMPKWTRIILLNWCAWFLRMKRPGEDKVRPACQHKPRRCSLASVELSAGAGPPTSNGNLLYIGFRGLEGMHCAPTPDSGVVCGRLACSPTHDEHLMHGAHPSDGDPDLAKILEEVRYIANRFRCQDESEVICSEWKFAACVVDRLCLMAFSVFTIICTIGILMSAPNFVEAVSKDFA
T1 sequence (P09483 31-630): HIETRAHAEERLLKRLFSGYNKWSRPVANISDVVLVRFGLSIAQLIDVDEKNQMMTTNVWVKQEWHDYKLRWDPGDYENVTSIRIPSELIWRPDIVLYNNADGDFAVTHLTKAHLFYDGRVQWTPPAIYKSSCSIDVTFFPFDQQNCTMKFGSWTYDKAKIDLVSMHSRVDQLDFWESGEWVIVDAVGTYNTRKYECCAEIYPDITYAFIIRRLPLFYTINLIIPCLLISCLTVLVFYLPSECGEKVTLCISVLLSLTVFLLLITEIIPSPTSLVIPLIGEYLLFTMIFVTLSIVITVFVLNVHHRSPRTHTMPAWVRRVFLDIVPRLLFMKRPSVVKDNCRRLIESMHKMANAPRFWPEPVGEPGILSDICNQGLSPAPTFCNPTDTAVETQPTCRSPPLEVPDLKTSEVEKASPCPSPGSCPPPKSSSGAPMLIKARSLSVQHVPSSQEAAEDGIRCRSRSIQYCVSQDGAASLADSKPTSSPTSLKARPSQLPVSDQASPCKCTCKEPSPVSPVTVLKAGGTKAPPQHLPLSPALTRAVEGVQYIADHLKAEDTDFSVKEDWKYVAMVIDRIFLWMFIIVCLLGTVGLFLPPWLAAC
T1 sequence (P12390 25-500): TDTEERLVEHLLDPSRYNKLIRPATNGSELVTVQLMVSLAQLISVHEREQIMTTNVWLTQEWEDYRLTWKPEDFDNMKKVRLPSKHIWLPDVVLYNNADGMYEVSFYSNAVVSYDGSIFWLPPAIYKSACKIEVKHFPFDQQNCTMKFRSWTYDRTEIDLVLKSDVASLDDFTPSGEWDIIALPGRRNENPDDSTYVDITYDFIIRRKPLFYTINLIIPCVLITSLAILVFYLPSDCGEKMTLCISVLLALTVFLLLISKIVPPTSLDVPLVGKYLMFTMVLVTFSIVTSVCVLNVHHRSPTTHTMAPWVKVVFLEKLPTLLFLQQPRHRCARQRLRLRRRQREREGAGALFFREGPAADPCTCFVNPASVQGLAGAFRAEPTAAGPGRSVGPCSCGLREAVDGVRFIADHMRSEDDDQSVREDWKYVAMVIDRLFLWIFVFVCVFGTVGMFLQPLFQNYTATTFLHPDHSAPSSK

Cc1cc[n+](CCCCCc2ccccc2CCCCC[n+]2ccc(C)c(C)c2)cc1C [Example 38, 1,2-bis-[5-(3,4-dimethyl-pyridinium)-pentyl]-benzene dibromide]
inhibition at 0.1 µM [1]: 3%
inhibition at 0.1 µM [2]: 4.6%
inhibition at 0.1 µM [3]: 10%

Cc1cc(C)c[n+](CCCCCc2ccccc2CCCCC[n+]2cc(C)cc(C)c2)c1 [Example 39, 1,2-bis-[5-(3,5-dimethyl-pyridinium)-pentyl]-benzene dibromide]
inhibition at 0.1 µM [1]: 0.7%
inhibition at 0.1 µM [2]: 0%
inhibition at 0.1 µM [3]: 47%

c1ccc(CCCCC[n+]2cccc3ccccc32)c(CCCCC[n+]2cccc3ccccc32)c1 [Example 40, 1,2-bis-(5-quinolinium-pentyl)-benzene dibromide]
inhibition at 0.1 µM [1]: 0%
inhibition at 0.1 µM [2]: 6.3%
inhibition at 0.1 µM [3]: 24%

c1ccc(CCCCC[n+]2ccc3ccccc3c2)c(CCCCC[n+]2ccc3ccccc3c2)c1 [Example 41, 1,2-bis-(5-isoquinolinium-pentyl)-benzene dibromide]
inhibition at 0.1 µM [1]: 1.9%
inhibition at 0.1 µM [2]: 0%
inhibition at 0.1 µM [3]: 54%

CN1CCCC1c1ccc[n+](CCCCCc2ccccc2CCCCC[n+]2cccc([C@@H]3CCCN3C)c2)c1 (stereo partly drawn) [Example 42, 1,2-bis-[5-(2′-S-nicotinium-pentyl)]benzene dibromide]
inhibition at 0.1 µM [1]: 71%
inhibition at 0.1 µM [2]: 11%
inhibition at 0.1 µM [3]: 59%

Brc1ccc[n+](CCCCCc2ccccc2CCCCC[n+]2cccc(Br)c2)c1 [Example 44, 1,2-bis-[5-(3-bromo-pyridinium)-pentyl]-benzene dibromide]
inhibition at 0.1 µM [1]: 2.9%
inhibition at 0.1 µM [2]: 0.9%
inhibition at 0.1 µM [3]: 7%

c1cc[n+](CCCCCc2ccccc2CCCCC[n+]2ccccc2)cc1 [Example 45, 1,2-bis-(5-pyridinium-pentyl)-benzene dibromide]
inhibition at 0.1 µM [1]: 3.3%
inhibition at 0.1 µM [2]: 1.9%
inhibition at 0.1 µM [3]: 37%

Cc1cccc[n+]1CCCC#Cc1cccc(C#CCCC[n+]2ccccc2C)c1 [Example 48, 1,3-bis-[5-(2-methyl-pyridinium)-pent-1-ynyl]-benzene dibromide]
inhibition at 0.1 µM [1]: 1.9%
inhibition at 0.1 µM [2]: 0%
inhibition at 0.1 µM [3]: 35%

Cc1ccc[n+](CCCC#Cc2cccc(C#CCCC[n+]3cccc(C)c3)c2)c1 [Example 49, 1,3-bis-[5-(3-methyl-pyridinium)-pent-1-ynyl]-benzene dibromide]
inhibition at 0.1 µM [1]: 0.5%
inhibition at 0.1 µM [2]: 8%
inhibition at 0.1 µM [3]: 6%

Cc1cc[n+](CCCC#Cc2cccc(C#CCCC[n+]3ccc(C)cc3)c2)cc1 [Example 50, 1,3-bis-[5-(4-methyl-pyridinium)-pent-1-ynyl]-benzene dibromide]
inhibition at 0.1 µM [1]: 10%
inhibition at 0.1 µM [2]: 6.4%
inhibition at 0.1 µM [3]: 26%

Cc1cc[n+](CCCC#Cc2cccc(C#CCCC[n+]3ccc(C)cc3C)c2)c(C)c1 [Example 51, 1,3-bis-[5-(2,4-dimethyl-pyridinium)-pent-1-ynyl]-benzene dibromide]
inhibition at 0.1 µM [1]: 7%
inhibition at 0.1 µM [2]: 5.5%
inhibition at 0.1 µM [3]: 0%

Cc1cc[n+](CCCC#Cc2cccc(C#CCCC[n+]3ccc(C)c(C)c3)c2)cc1C [Example 52, 1,3-bis-[5-(3,4-dimethyl-pyridinium)-pent-1-ynyl]-benzene dibromide]
inhibition at 0.1 µM [1]: 11%
inhibition at 0.1 µM [2]: 3.3%
inhibition at 0.1 µM [3]: 11%

Cc1cc(C)c[n+](CCCC#Cc2cccc(C#CCCC[n+]3cc(C)cc(C)c3)c2)c1 [Example 53, 1,3-bis-[5-(3,5-dimethyl-pyridinium)-pent-1-ynyl]-benzene dibromide]
inhibition at 0.1 µM [1]: 0%
inhibition at 0.1 µM [2]: 1.3%
inhibition at 0.1 µM [3]: 4%

C(#Cc1cccc(C#CCCC[n+]2cccc3ccccc32)c1)CCC[n+]1cccc2ccccc21 [Example 54, 1,3-bis-(5-quinolinium-pent-1-ynyl)-benzene dibromide]
inhibition at 0.1 µM [1]: 16%
inhibition at 0.1 µM [2]: 3.9%
inhibition at 0.1 µM [3]: 17%
